Each structure is given as a SMILES string. Numbered stars: 1 amine (or outer) side, 2 acyl side, 3 side chain; on linkers, the order of the positions; unused ones are H or OH. Bridge positions count the residues as written; N and C are the ends. Square brackets hold non-standard residues; d marks the D form. Peptide text beside a SMILES is read from it. Phe(4-COOH) = N[C@@H](Cc1ccc(C(=O)O)cc1)C(=O)O; Bip = N[C@@H](Cc1ccc(-c2ccccc2)cc1)C(=O)O; dBip = N[C@H](Cc1ccc(-c2ccccc2)cc1)C(=O)O; Phe(4-NH2) = Nc1ccc(C[C@H](N)C(=O)O)cc1; d(hPhe) = N[C@H](CCc1ccccc1)C(=O)O; hPhe = N[C@@H](CCc1ccccc1)C(=O)O; 2Thi = N[C@@H](Cc1cccs1)C(=O)O; d2Thi = N[C@H](Cc1cccs1)C(=O)O; Suc = O=C(CCC(=O)[*:2])[*:1]; Ava = NCCCCC(=O)O; GABA = NCCCC(=O)O; βAla = NCCC(=O)O

The first experiment deals with T1, TNFα / TNFα receptor (TNFα R1/Fc) (Homo sapiens, UniProt P01375).
T1 construct: purchased R&D Systems
T1 sequence (P01375 77-233 limits assumed, species assumed): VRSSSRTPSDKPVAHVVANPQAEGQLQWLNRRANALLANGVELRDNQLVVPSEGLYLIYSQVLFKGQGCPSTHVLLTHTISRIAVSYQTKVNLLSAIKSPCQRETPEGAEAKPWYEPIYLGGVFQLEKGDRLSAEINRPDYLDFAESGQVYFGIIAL
Description: Inhibition of binding of TNFα to the TNFα receptor (plate ELISA competition). To be noted: Activity (IC50, inhibition of TNFα binding to TNFα R1/Fc), Table 2. In outline: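 Compound dilutions were preincubated 30 min at RT with 8.33 nM TNFα R1/Fc in PBST with 2% DMSO, then added to wells coated with 15 nM TNFα for 30 min. Bound receptor was detected with HRP anti-human Fc and TMB, read as A450.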
Background: In an ELISA, binding on a coated surface is turned into a signal by an enzyme label.
`O=C1COc2ccc(cc2)C[C@@H](C(=O)N[C@H](Cc2ccccc2)C(=O)O)NC(=O)[C@H](CCc2ccccc2)NC(=O)[C@@H](Cc2ccc(-c3ccccc3)cc2)NC(=O)[C@H](Cc2cccs2)N1` [Compound 480] registered an IC50 of 10 to 30 µM.
`O=C1COc2ccc(cc2)C[C@@H](C(=O)N[C@@H](Cc2ccccc2)C(=O)O)NC(=O)[C@H](CCc2ccccc2)NC(=O)[C@@H](Cc2ccc(-c3ccccc3)cc2)NC(=O)[C@H](Cc2cccs2)N1` [Compound 481] returned an IC50 below 10 µM.
`O=C1COc2ccc(cc2)C[C@@H](C(=O)N[C@@H](CO)C(=O)O)NC(=O)[C@H](CCc2ccccc2)NC(=O)[C@@H](Cc2ccc(-c3ccccc3)cc2)NC(=O)[C@H](Cc2cccs2)N1` [Compound 486] displayed an IC50 below 10 µM.

Still in this experiment, the particulars now being: Table 2; read-out: Activity (IC50, inhibition of TNFα binding to TNFα R1/Fc).
Take `C[C@H](NC(=O)[C@@H]1Cc2ccc(cc2)NC(=O)CCC(=O)N[C@H](Cc2ccccc2)C(=O)N[C@@H](Cc2ccc(-c3ccccc3)cc2)C(=O)N[C@H](CCc2ccccc2)C(=O)N1)C(=O)O` [Compound 458] ([dF][Bip][d(hPhe)][Phe(4-NH2)]A-OH; linker N-4 via Suc): the IC50 was above 100 µM.
Take `O=C(O)CCNC(=O)[C@@H]1Cc2ccc(cc2)NC(=O)CCC(=O)N[C@H](Cc2ccccc2)C(=O)N[C@@H](Cc2ccc(-c3ccccc3)cc2)C(=O)N[C@H](CCc2ccccc2)C(=O)N1` [Compound 459] ([dF][Bip][d(hPhe)][Phe(4-NH2)][βAla]-OH; linker N-4 via Suc): the IC50 is above 100 µM.
As for `O=C(O)CCCNC(=O)[C@@H]1Cc2ccc(cc2)NC(=O)CCC(=O)N[C@H](Cc2ccccc2)C(=O)N[C@@H](Cc2ccc(-c3ccccc3)cc2)C(=O)N[C@H](CCc2ccccc2)C(=O)N1` [Compound 460] ([dF][Bip][d(hPhe)][Phe(4-NH2)][GABA]-OH; linker N-4 via Suc), the IC50 is above 100 µM.
As to `O=C(O)CCCCNC(=O)[C@@H]1Cc2ccc(cc2)NC(=O)CCC(=O)N[C@H](Cc2ccccc2)C(=O)N[C@@H](Cc2ccc(-c3ccccc3)cc2)C(=O)N[C@H](CCc2ccccc2)C(=O)N1` [Compound 461] ([dF][Bip][d(hPhe)][Phe(4-NH2)][Ava]-OH; linker N-4 via Suc), the IC50 is above 100 µM.
`O=C(O)CNC(=O)[C@@H]1Cc2ccc(cc2)NC(=O)CCC(=O)N[C@H](Cc2ccccc2)C(=O)N[C@@H](Cc2ccc(-c3ccccc3)cc2)C(=O)N[C@H](CCc2ccccc2)C(=O)N1` [Compound 462] ([dF][Bip][d(hPhe)][Phe(4-NH2)]G-OH; linker N-4 via Suc): the IC50 is above 100 µM.
With `O=C1CCNC(=O)c2ccc(cc2)C[C@@H](C(=O)O)NC(=O)[C@H](Cc2ccccc2)NC(=O)[C@H](Cc2ccc(-c3ccccc3)cc2)NC(=O)[C@H](CCc2ccccc2)N1` [Compound 463] ([βAla][hPhe][Bip]F[Phe(4-COOH)]-OH; lactam N-5), the IC50 was above 100 µM.
`O=C1CCNC(=O)c2ccc(cc2)C[C@@H](C(=O)O)NC(=O)[C@H](Cc2ccccc2)NC(=O)[C@H](Cc2ccc(-c3ccccc3)cc2)NC(=O)[C@@H](CCc2ccccc2)N1` [Compound 464] ([βAla][d(hPhe)][Bip]F[Phe(4-COOH)]-OH; lactam N-5): the IC50 is below 10 µM.
`O=C1CCNC(=O)c2ccc(cc2)C[C@@H](C(=O)O)NC(=O)[C@H](Cc2ccccc2)NC(=O)[C@@H](Cc2ccc(-c3ccccc3)cc2)NC(=O)[C@H](CCc2ccccc2)N1` [Compound 465] ([βAla][hPhe][dBip]F[Phe(4-COOH)]-OH; lactam N-5): the IC50 was below 10 µM.
As to `O=C1CCNC(=O)c2ccc(cc2)C[C@@H](C(=O)O)NC(=O)[C@H](Cc2ccccc2)NC(=O)[C@@H](Cc2ccc(-c3ccccc3)cc2)NC(=O)[C@@H](CCc2ccccc2)N1` [Compound 466] ([βAla][d(hPhe)][dBip]F[Phe(4-COOH)]-OH; lactam N-5), the IC50 is above 100 µM.
With `O=C1CCNC(=O)c2ccc(cc2)C[C@@H](C(=O)O)NC(=O)[C@@H](Cc2ccccc2)NC(=O)[C@H](Cc2ccc(-c3ccccc3)cc2)NC(=O)[C@H](CCc2ccccc2)N1` [Compound 467] ([βAla][hPhe][Bip][dF][Phe(4-COOH)]-OH; lactam N-5), the IC50 was above 100 µM.
For the compound `O=C1CCNC(=O)c2ccc(cc2)C[C@@H](C(=O)O)NC(=O)[C@@H](Cc2ccccc2)NC(=O)[C@@H](Cc2ccc(-c3ccccc3)cc2)NC(=O)[C@H](CCc2ccccc2)N1` [Compound 468] ([βAla][hPhe][dBip][dF][Phe(4-COOH)]-OH; lactam N-5), the IC50 is above 100 µM.
Regarding `O=C1CCNC(=O)c2ccc(cc2)C[C@@H](C(=O)O)NC(=O)[C@@H](Cc2ccccc2)NC(=O)[C@@H](Cc2ccc(-c3ccccc3)cc2)NC(=O)[C@@H](CCc2ccccc2)N1` [Compound 469] ([βAla][d(hPhe)][dBip][dF][Phe(4-COOH)]-OH; lactam N-5), the IC50 was above 100 µM.
As to `O=C1CCC(=O)N[C@H](CCc2ccccc2)C(=O)N[C@@H](Cc2ccc(-c3ccccc3)cc2)C(=O)N[C@H](Cc2ccccc2)C(=O)N[C@H](C(=O)N[C@@H](CCc2ccccc2)C(=O)O)Cc2ccc(cc2)N1` [Compound 470] ([d(hPhe)][Bip][dF][Phe(4-NH2)][hPhe]-OH; linker N-4 via Suc), the IC50 is below 10 µM.
For the compound `O=C1CCC(=O)N[C@H](CCc2ccccc2)C(=O)N[C@@H](Cc2ccc(-c3ccccc3)cc2)C(=O)N[C@H](Cc2ccccc2)C(=O)N[C@H](C(=O)N[C@@H](Cc2ccc(O)cc2)C(=O)O)Cc2ccc(cc2)N1` [Compound 471] ([d(hPhe)][Bip][dF][Phe(4-NH2)]Y-OH; linker N-4 via Suc), the IC50 was below 10 µM.
Regarding `O=C(O)CNC(=O)[C@@H]1Cc2ccc(cc2)OCC(=O)N[C@@H](Cc2cccs2)C(=O)N[C@H](Cc2ccc(-c3ccccc3)cc2)C(=O)N[C@@H](CCc2ccccc2)C(=O)N1` [Compound 472], the IC50 was below 10 µM.
With `C[C@H](NC(=O)[C@@H]1Cc2ccc(cc2)OCC(=O)N[C@@H](Cc2cccs2)C(=O)N[C@H](Cc2ccc(-c3ccccc3)cc2)C(=O)N[C@@H](CCc2ccccc2)C(=O)N1)C(=O)O` [Compound 473], the IC50 is below 10 µM.
With `O=C(O)CCNC(=O)[C@@H]1Cc2ccc(cc2)OCC(=O)N[C@@H](Cc2cccs2)C(=O)N[C@H](Cc2ccc(-c3ccccc3)cc2)C(=O)N[C@@H](CCc2ccccc2)C(=O)N1` [Compound 475], the IC50 is below 10 µM.
Turning to `CC(C)(NC(=O)[C@@H]1Cc2ccc(cc2)OCC(=O)N[C@@H](Cc2cccs2)C(=O)N[C@H](Cc2ccc(-c3ccccc3)cc2)C(=O)N[C@@H](CCc2ccccc2)C(=O)N1)C(=O)O` [Compound 477], the IC50 is below 10 µM.
Turning to `O=C1COc2ccc(cc2)C[C@@H](C(=O)NC2(C(=O)O)CC2)NC(=O)[C@H](CCc2ccccc2)NC(=O)[C@@H](Cc2ccc(-c3ccccc3)cc2)NC(=O)[C@H](Cc2cccs2)N1` [Compound 478], the IC50 was below 10 µM.
As to `O=C(O)CNC(=O)CNC(=O)[C@@H]1Cc2ccc(cc2)OCC(=O)N[C@@H](Cc2cccs2)C(=O)N[C@H](Cc2ccc(-c3ccccc3)cc2)C(=O)N[C@@H](CCc2ccccc2)C(=O)N1` [Compound 479], the IC50 was below 10 µM.
For `O=C1COc2ccc(cc2)C[C@@H](C(=O)NS(=O)(=O)c2ccccc2)NC(=O)[C@H](CCc2ccccc2)NC(=O)[C@@H](Cc2ccc(-c3ccccc3)cc2)NC(=O)[C@H](Cc2cccs2)N1` [Compound 483], the IC50 was above 100 µM.
Take `Cc1ccc(S(=O)(=O)NCCNC(=O)[C@@H]2Cc3ccc(cc3)OCC(=O)N[C@@H](Cc3cccs3)C(=O)N[C@H](Cc3ccc(-c4ccccc4)cc3)C(=O)N[C@@H](CCc3ccccc3)C(=O)N2)cc1` [Compound 484]: the IC50 is above 100 µM.
On to `O=C(O)C[C@H](Cc1ccccc1)NC(=O)[C@@H]1Cc2ccc(cc2)OCC(=O)N[C@@H](Cc2cccs2)C(=O)N[C@H](Cc2ccc(-c3ccccc3)cc2)C(=O)N[C@@H](CCc2ccccc2)C(=O)N1` [Compound 485], for which the IC50 lay within 10 to 30 µM.
As to `CC(C)[C@H](NC(=O)[C@@H]1Cc2ccc(cc2)OCC(=O)N[C@@H](Cc2cccs2)C(=O)N[C@H](Cc2ccc(-c3ccccc3)cc2)C(=O)N[C@@H](CCc2ccccc2)C(=O)N1)C(=O)O` [Compound 487], the IC50 lay in the range of 10 to 30 µM.
Take `NC(=O)C[C@@H]1NC(=O)COc2ccc(cc2)C[C@@H](C(=O)O)NC(=O)[C@H](Cc2ccccc2)NC(=O)[C@@H](Cc2ccc(-c3ccccc3)cc2)NC1=O` [Compound 488]: the IC50 is above 100 µM.
Consider `CC(C)(C)Oc1ccc(C[C@@H]2NC(=O)COc3ccc(cc3)C[C@@H](C(=O)O)NC(=O)[C@H](Cc3ccccc3)NC(=O)[C@H](Cc3ccc(-c4ccccc4)cc3)NC2=O)cc1` [Compound 489], for which the IC50 was above 100 µM.
For `CC(=O)NCCCC[C@@H]1NC(=O)COc2ccc(cc2)C[C@@H](C(=O)O)NC(=O)[C@H](Cc2ccccc2)NC(=O)[C@H](Cc2ccc(-c3ccccc3)cc2)NC1=O` [Compound 490], the IC50 was above 100 µM.
The same measure, in the same setting: next, `O=C1COc2ccc(cc2)C[C@@H](C(=O)O)NC(=O)[C@H](Cc2ccccc2)NC(=O)[C@H](Cc2ccc(-c3ccccc3)cc2)NC(=O)[C@H](Cc2ccc(OCc3ccccc3)cc2)N1` [Compound 491]: above 100 µM; `O=C1CCC(=O)N[C@@H](Cc2cccs2)C(=O)N[C@H](Cc2ccc(-c3ccccc3)cc2)C(=O)N[C@H](Cc2ccccc2)C(=O)N[C@H](C(=O)O)Cc2ccc(cc2)N1` [Compound 494] ([2Thi][dBip][dF][Phe(4-NH2)]-OH; linker N-4 via Suc): above 100 µM.
With `O=C1CCC(=O)N[C@@H](Cc2cccs2)C(=O)N[C@@H](Cc2ccc(-c3ccccc3)cc2)C(=O)N[C@@H](Cc2ccccc2)C(=O)N[C@H](C(=O)O)Cc2ccc(cc2)N1` [Compound 495] ([2Thi][Bip]F[Phe(4-NH2)]-OH; linker N-4 via Suc), the IC50 is above 100 µM.
Take `O=C1CCC(=O)N[C@H](Cc2cccs2)C(=O)N[C@H](Cc2ccc(-c3ccccc3)cc2)C(=O)N[C@@H](Cc2ccccc2)C(=O)N[C@H](C(=O)O)Cc2ccc(cc2)N1` [Compound 496] ([d2Thi][dBip]F[Phe(4-NH2)]-OH; linker N-4 via Suc): the IC50 is above 100 µM.

Values taken from patent US8338565B2, “Macrocyclic compounds for inhibition of tumor necrosis factor alpha” (Ensemble Therapeutics Corporation, priority 2008, dated 2012).
